Molecular target: T1, LXRα and LXRβ (Homo sapiens, UniProt P55055+Q13133)
T1 construct: made in house
T1 sequence (Q13133 188-447 limits assumed): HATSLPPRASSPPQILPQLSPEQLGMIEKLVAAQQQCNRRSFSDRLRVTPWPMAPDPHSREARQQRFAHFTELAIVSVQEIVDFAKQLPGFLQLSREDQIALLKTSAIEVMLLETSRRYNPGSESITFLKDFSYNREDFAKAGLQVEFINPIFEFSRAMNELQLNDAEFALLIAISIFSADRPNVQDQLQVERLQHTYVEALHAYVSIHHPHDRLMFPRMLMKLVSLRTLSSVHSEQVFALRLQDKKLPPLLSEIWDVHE
T1 sequence (P55055 197-460 limits assumed): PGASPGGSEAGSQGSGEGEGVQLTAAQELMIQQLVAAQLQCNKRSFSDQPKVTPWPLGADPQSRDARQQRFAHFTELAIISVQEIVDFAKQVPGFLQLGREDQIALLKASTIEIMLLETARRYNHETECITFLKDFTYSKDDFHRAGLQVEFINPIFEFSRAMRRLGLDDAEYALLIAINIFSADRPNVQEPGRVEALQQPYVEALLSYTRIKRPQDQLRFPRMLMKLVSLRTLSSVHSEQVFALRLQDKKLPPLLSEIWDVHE
T1 sequence (Q15788 676-700 partner limits assumed): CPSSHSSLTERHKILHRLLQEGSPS
Experiment: High throughput FRET co-activator (SRC-1) recruitment assay, multiplexed
Format: biochemical
Conditions: 10 uM, positive control; negative control DMSO around 0
Protocol: FIG. 9. is a scatter plot of a co-activator recruitment assay showing fluorescence emitted from APC at 665 nm in a FRET based (biochemical) co-factor recruitment assay that detects the binding of the SCR-1 co-activator to […]. In this assay, recruitment of SCR-1 to both LXRα and LXRβ were simultaneously assayed.
High through FRET cofactor interaction assays were performed in 96 or 384 well assay well plates using automated liquid handling and analysis. Screens for LXR were performed using the protocol below. Equivalent screens for FXR were performed using the FXR (SEQ.ID. No. 4) ligand binding domain in place of LXRα and LXRβ LBD and at a concentration of 8 nM per well.
1. Partially purified recombinant protein comprising glutathione-S-transferase fused in frame to the LXR-ligand binding domain (comprising amino acids 188-447 of human LXRα (SEQ. ID. No. 6), or amino acids 198-461 of human LXRβ (SEQ. ID. No. 7)).
2. Biotinylated peptide containing a SRC-1 receptor interaction motif(B-SRC-1) (SEQ. ID. No. 46).
3. […]
d) Plates were read using an LJL Analyst, or similar instrument, using the following conditions: Channel 1: The excitation wavelength was set to 330 nm, emitted light was collected at 615 nm, with 100 flashes per well, an integration time of 1000 μs; a 10 msec interval between flashes, and a delay after flashes of 200 μs. […]

SMILES: CC(C)CC[C@@H](O)[C@@H](C)[C@H]1CC[C@H]2[C@@H]3CC=C4C[C@@H](O)CC[C@]4(C)[C@H]3CC[C@]12C [22-R-Hydroxy-Cholesterol]
- fluorescence emitted from APC at 665 nm (SRC-1 recruitment, Spotfire scale): around 100

Source: US20030228607A1, “Screening method and modulators having an improved therapeutic profile” (priority 2002, published 2003)
